According to US20250120932A1, “PHARMACEUTICAL COMPOSITION” (NEUROPRO THERAPEUTICS, INC., priority 2021, published 2025):

Experiment: Pharmacokinetic study in cynomolgus monkeys after oral (nasogastric) gavage, sublingual and intravenous administration
Format: in vivo
Settings: cynomolgus monkey, plasma, Plasma Bumetanide Dibenzylamide concentration, monkey; for concentration at 0.5 h: 0.50 h
Procedure: A pharmacokinetic study was done in cynomolgus monkeys following single oral (nasogastric) gavage, sublingual, and intravenous administration. […] Calibration curves, blanks, and analytical QCs were prepared in monkey plasma (K2EDTA). The extracts were evaporated to dryness, reconstituted, and then analyzed by LC-MS/MS. The calibration range was 0.250-250 ng/mL for both analytes.
If the criteria for either the calibration curve or the analytical QCs were not met, the analytical run was rejected. […] No deviations were found during the bioanalytical phase of the study conducted by Origin. Calibration curves were derived from the individual analyte to internal standard peak area ratios using the least squared regression of the ratio versus the nominal concentration of the calibration standard, prepared in duplicate. The regression was then used to back-calculate the concentration of each calibration standard, QC sample and study sample. […] Analyst® Software Version 1.6.3 (Applied Biosystems-MDS Sciex), operated with Windows® (Microsoft), was used for instrument control, data acquisition, and peak integrations. Peak area ratios, standard curve regressions, and sample concentration/accuracy values were calculated with Analyst® Software Version 1.6.3. Other results (e.g., mean statistics) were calculated with Excel® (Microsoft).
There was no apparent sex difference for the second formulation. […] A fourth formulation comprising the composition B listed in Table 54 was also administered in monheys.

[1] = both sexes, oral, 30 mg/kg, Mean, NG 30 mg/kg, First Formulation (Form 1), N=4
[2] = both sexes, oral, 30 mg/kg, Mean, NG 30 mg/kg, Second Formulation (Form 3), N=4
[3] = both sexes, oral, 30 mg/kg, Median, NG 30 mg/kg, First Formulation (Form 1), N=4
[4] = both sexes, oral, 30 mg/kg, Median, NG 30 mg/kg, Second Formulation (Form 3), N=4
[5] = intravenous, 2 mg/kg, Mean, dose column 2 mg/kg (title 30 mg/kg), Third Formulation (Form 4), N=4
[6] = intravenous, 2 mg/kg, dose column 2 mg/kg (title 30 mg/kg), Third Formulation (Form 4), individual animals
[7] = other: sublingual, 5 mg/kg, Mean, SL, dose column 5 mg/kg (title 30 mg/kg), Fourth Formulation (Form 2), N=4
[8] = other: sublingual, 5 mg/kg, Median, SL, dose column 5 mg/kg (title 30 mg/kg), Fourth Formulation (Form 2), N=4
[9] = other: sublingual, 5 mg/kg, SL, dose column 5 mg/kg (title 30 mg/kg), Fourth Formulation (Form 2), individual animals

concentration at 0 h [1]: 0 ng/mL
concentration at 0.25 h [1]: 4.31 ng/mL
concentration at 0.5 h [1]: 5.9 ng/mL
concentration at 1 h (both sexes, oral, 30 mg/kg, Mean, NG 30 mg/kg, First Formulation (Form 1), 1.00 h, N=4): 13.2 ng/mL
concentration at 2 h (both sexes, oral, 30 mg/kg, Mean, NG 30 mg/kg, First Formulation (Form 1), 2.00 h, N=4): 62.6 ng/mL
concentration at 4 h (both sexes, oral, 30 mg/kg, Mean, NG 30 mg/kg, First Formulation (Form 1), 4.00 h, N=4): 66.8 ng/mL
concentration at 8 h (both sexes, oral, 30 mg/kg, Mean, NG 30 mg/kg, First Formulation (Form 1), 8.00 h, N=4): 44.9 ng/mL
concentration at 24 h (both sexes, oral, 30 mg/kg, Mean, NG 30 mg/kg, First Formulation (Form 1), 24.00 h, N=4): 8.59 ng/mL
concentration at 32 h (both sexes, oral, 30 mg/kg, Mean, NG 30 mg/kg, First Formulation (Form 1), 32.00 h, N=4): 4.51 ng/mL
concentration at 0 h [2]: 0 ng/mL
concentration at 0.25 h [2]: 0.283 ng/mL
concentration at 0.5 h [2]: 2.85 ng/mL
concentration at 1 h (both sexes, oral, 30 mg/kg, Mean, NG 30 mg/kg, Second Formulation (Form 3), 1.00 h, N=4): 11.5 ng/mL
concentration at 2 h (both sexes, oral, 30 mg/kg, Mean, NG 30 mg/kg, Second Formulation (Form 3), 2.00 h, N=4): 54.1 ng/mL
concentration at 4 h (both sexes, oral, 30 mg/kg, Mean, NG 30 mg/kg, Second Formulation (Form 3), 4.00 h, N=4): 231 ng/mL
concentration at 8 h (both sexes, oral, 30 mg/kg, Mean, NG 30 mg/kg, Second Formulation (Form 3), 8.00 h, N=4): 590 ng/mL
concentration at 24 h (both sexes, oral, 30 mg/kg, Mean, NG 30 mg/kg, Second Formulation (Form 3), 24.00 h, N=4): 13.6 ng/mL
concentration at 32 h (both sexes, oral, 30 mg/kg, Mean, NG 30 mg/kg, Second Formulation (Form 3), 32.00 h, N=4): 2.94 ng/mL
concentration at 0 h [3]: 0 ng/mL
concentration at 0.25 h [3]: 0.962 ng/mL
concentration at 0.5 h [3]: 2.82 ng/mL
concentration at 1 h (both sexes, oral, 30 mg/kg, Median, NG 30 mg/kg, First Formulation (Form 1), 1.00 h, N=4): 10.1 ng/mL
concentration at 2 h (both sexes, oral, 30 mg/kg, Median, NG 30 mg/kg, First Formulation (Form 1), 2.00 h, N=4): 42.6 ng/mL
concentration at 4 h (both sexes, oral, 30 mg/kg, Median, NG 30 mg/kg, First Formulation (Form 1), 4.00 h, N=4): 37.6 ng/mL
concentration at 8 h (both sexes, oral, 30 mg/kg, Median, NG 30 mg/kg, First Formulation (Form 1), 8.00 h, N=4): 31.3 ng/mL
concentration at 24 h (both sexes, oral, 30 mg/kg, Median, NG 30 mg/kg, First Formulation (Form 1), 24.00 h, N=4): 5.38 ng/mL
concentration at 32 h (both sexes, oral, 30 mg/kg, Median, NG 30 mg/kg, First Formulation (Form 1), 32.00 h, N=4): 3.75 ng/mL
concentration at 0 h [4]: 0 ng/mL
concentration at 0.25 h [4]: 0.256 ng/mL
concentration at 0.5 h [4]: 2.44 ng/mL
concentration at 1 h (both sexes, oral, 30 mg/kg, Median, NG 30 mg/kg, Second Formulation (Form 3), 1.00 h, N=4): 9.43 ng/mL
concentration at 2 h (both sexes, oral, 30 mg/kg, Median, NG 30 mg/kg, Second Formulation (Form 3), 2.00 h, N=4): 58.6 ng/mL
concentration at 4 h (both sexes, oral, 30 mg/kg, Median, NG 30 mg/kg, Second Formulation (Form 3), 4.00 h, N=4): 194 ng/mL
concentration at 8 h (both sexes, oral, 30 mg/kg, Median, NG 30 mg/kg, Second Formulation (Form 3), 8.00 h, N=4): 566 ng/mL
concentration at 24 h (both sexes, oral, 30 mg/kg, Median, NG 30 mg/kg, Second Formulation (Form 3), 24.00 h, N=4): 10 ng/mL
concentration at 32 h (both sexes, oral, 30 mg/kg, Median, NG 30 mg/kg, Second Formulation (Form 3), 32.00 h, N=4): 1.86 ng/mL
concentration at 0 h (both sexes, oral, 30 mg/kg, NG 30 mg/kg, First Formulation (Form 1), individual animals): 0 ng/mL
concentration at 0 h (both sexes, oral, 30 mg/kg, NG 30 mg/kg, Second Formulation (Form 3), individual animals): 0 ng/mL
concentration at 8 h (both sexes, oral, 30 mg/kg, NG 30 mg/kg, Second Formulation (Form 3), 8.00 h, individual animals): 442 ng/mL
concentration at 0.08 h [5]: 1440 ng/mL
concentration at 0.5 h [5]: 664 ng/mL
concentration at 1 h (intravenous, 2 mg/kg, Mean, dose column 2 mg/kg (title 30 mg/kg), Third Formulation (Form 4), 1.00 h, N=4): 483 ng/mL
concentration at 2 h (intravenous, 2 mg/kg, Mean, dose column 2 mg/kg (title 30 mg/kg), Third Formulation (Form 4), 2.00 h, N=4): 285 ng/mL
concentration at 4 h (intravenous, 2 mg/kg, Mean, dose column 2 mg/kg (title 30 mg/kg), Third Formulation (Form 4), 4.00 h, N=4): 114 ng/mL
concentration at 8 h (intravenous, 2 mg/kg, Mean, dose column 2 mg/kg (title 30 mg/kg), Third Formulation (Form 4), 8.00 h, N=4): 30.7 ng/mL
concentration at 24 h (intravenous, 2 mg/kg, Mean, dose column 2 mg/kg (title 30 mg/kg), Third Formulation (Form 4), 24.00 h, N=4): 3.57 ng/mL
concentration at 32 h (intravenous, 2 mg/kg, Mean, dose column 2 mg/kg (title 30 mg/kg), Third Formulation (Form 4), 32.00 h, N=4): 1.48 ng/mL
concentration at 0.08 h [6]: 1860 ng/mL
concentration at 0.5 h [6]: 717 ng/mL
concentration at 1 h (intravenous, 2 mg/kg, dose column 2 mg/kg (title 30 mg/kg), Third Formulation (Form 4), 1.00 h, individual animals): 538 ng/mL
concentration at 2 h (intravenous, 2 mg/kg, dose column 2 mg/kg (title 30 mg/kg), Third Formulation (Form 4), 2.00 h, individual animals): 332 ng/mL
concentration at 4 h (intravenous, 2 mg/kg, dose column 2 mg/kg (title 30 mg/kg), Third Formulation (Form 4), 4.00 h, individual animals): 149 ng/mL
concentration at 0 h [7]: 0 ng/mL
concentration at 0.25 h [7]: 0 ng/mL
concentration at 0.5 h [7]: 0 ng/mL
concentration at 1 h (other: sublingual, 5 mg/kg, Mean, SL, dose column 5 mg/kg (title 30 mg/kg), Fourth Formulation (Form 2), 1.0 h, N=4): 0 ng/mL
concentration at 2 h (other: sublingual, 5 mg/kg, Mean, SL, dose column 5 mg/kg (title 30 mg/kg), Fourth Formulation (Form 2), 2.0 h, N=4): 0.155 ng/mL
concentration at 4 h (other: sublingual, 5 mg/kg, Mean, SL, dose column 5 mg/kg (title 30 mg/kg), Fourth Formulation (Form 2), 4.0 h, N=4): 0.114 ng/mL
concentration at 8 h (other: sublingual, 5 mg/kg, Mean, SL, dose column 5 mg/kg (title 30 mg/kg), Fourth Formulation (Form 2), 8.0 h, N=4): 0.41 ng/mL
concentration at 24 h (other: sublingual, 5 mg/kg, Mean, SL, dose column 5 mg/kg (title 30 mg/kg), Fourth Formulation (Form 2), 24.0 h, N=4): 0.248 ng/mL
concentration at 32 h (other: sublingual, 5 mg/kg, Mean, SL, dose column 5 mg/kg (title 30 mg/kg), Fourth Formulation (Form 2), 32.0 h, N=4): 0.0803 ng/mL
concentration at 0 h [8]: 0 ng/mL
concentration at 0.25 h [8]: 0 ng/mL
concentration at 0.5 h [8]: 0 ng/mL
concentration at 1 h (other: sublingual, 5 mg/kg, Median, SL, dose column 5 mg/kg (title 30 mg/kg), Fourth Formulation (Form 2), 1.0 h, N=4): 0 ng/mL
concentration at 2 h (other: sublingual, 5 mg/kg, Median, SL, dose column 5 mg/kg (title 30 mg/kg), Fourth Formulation (Form 2), 2.0 h, N=4): 0 ng/mL
concentration at 4 h (other: sublingual, 5 mg/kg, Median, SL, dose column 5 mg/kg (title 30 mg/kg), Fourth Formulation (Form 2), 4.0 h, N=4): 0 ng/mL
concentration at 8 h (other: sublingual, 5 mg/kg, Median, SL, dose column 5 mg/kg (title 30 mg/kg), Fourth Formulation (Form 2), 8.0 h, N=4): 0.505 ng/mL
concentration at 24 h (other: sublingual, 5 mg/kg, Median, SL, dose column 5 mg/kg (title 30 mg/kg), Fourth Formulation (Form 2), 24.0 h, N=4): 0.182 ng/mL
concentration at 32 h (other: sublingual, 5 mg/kg, Median, SL, dose column 5 mg/kg (title 30 mg/kg), Fourth Formulation (Form 2), 32.0 h, N=4): 0 ng/mL
concentration at 0 h [9]: 0 ng/mL
concentration at 0.25 h [9]: 0 ng/mL
concentration at 0.5 h [9]: 0 ng/mL
Structure (SMILES): CCCCNc1cc(C(=O)N(Cc2ccccc2)Cc2ccccc2)cc(S(N)(=O)=O)c1Oc1ccccc1 [Bumetanide Dibenzylamide, N, N-dibenzyl 3-aminosulfonyl-5-butylamino-4-phenoxybenzamide]
